Measurements from patent publication US20190369111A1, “MOLECULAR KINETICS EVALUATION METHOD AND SCREENING METHOD” (Tokyo University of Science Foundation, priority 2016, published 2019).

Target: T1, wild-type K-Ras protein (Homo sapiens, UniProt P01116)
T1 construct: expressed in transfected cells; host or cells: HeLa cells, transient transfection
Assay: Degradation (knockdown) of forcibly expressed wild-type K-Ras protein in HeLa cells, FACS analysis
Type: cell-based
Method: A plasmid expressing a wild-type K-Ras protein (K-Ras-WT) was prepared using a plasmid (pMIR-DsRed-IRES-ecDHFR-HA-GFP) expressing an ecDHFR protein by RF cloning. The full-length cDNA clone (Accession No. AK292510) of a human K-ras gene was purchased from Independent Administrative Institution, the National Institute of Technology and Evaluation. PCR amplification was performed using KOD-Plus-Neo (TOYOBO CO., LTD) as a PCR enzyme.
The plasmid was introduced into HeLa cells to transiently overexpress a wild-type K-Ras protein (specifically, a fusion protein of a wild-type K-Ras protein and GFP via a HA tag) or a DsRed protein for comparison in the cells.
ScreenFect™A (Wako Pure Chemical Industries, Ltd.) as a transfection reagent was used to introduce the plasmid into HeLa cells by a routine procedure. The HeLa cells into which the plasmid had been introduced were seeded in a 24-well plate at a cell density of 4×10^4 cells/well, and then cultured under conditions of 37° C. and 5 vol % CO2 for 40 hours. […]
A BD FACSCanto™ II (BD Biosciences) was used for flow cytometry, and the expression levels of GFP and DsRed protein in the cells were quantified. […] The GFP/DsRed ratio per cell was computed using an analysis software FlowJo™ (TOMY Digital Biology Co., Ltd.), and degradation (knockdown) of the wild-type K-Ras protein by TUS-007 was determined from a shift in a graph.

T1 sequence (P01116 1-188 isoform P01116-2): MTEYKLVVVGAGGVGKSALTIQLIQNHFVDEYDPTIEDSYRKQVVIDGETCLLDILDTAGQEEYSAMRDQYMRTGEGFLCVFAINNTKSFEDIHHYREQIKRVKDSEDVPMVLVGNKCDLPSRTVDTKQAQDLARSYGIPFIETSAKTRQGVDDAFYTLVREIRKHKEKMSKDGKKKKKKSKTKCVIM

## CC[C@@H](C)[C@H](NC(=O)CCCCCCNC(=O)[C@H](CC(C)C)NC(=O)CNC(=O)c1cc(Cl)ccc1Cl)C(=O)Nc1ccc2[nH]c(Cc3c[nH]c4ccccc34)nc2c1 [TUS-007]
24 hours after addition, vs control (DMSO)
  degradation (knockdown) of wild-type K-Ras protein (shift of GFP/DsRed ratio graph): degradation of the wild-type K-Ras protein was induced
Both TUS-007 and MLN2238 added, compared with TUS-007 alone
  degradation of wild-type K-Ras protein when MLN2238 is added together: degradation of the wild-type K-Ras protein was inhibited
